Results taken from US6677330B1, “Fluorides of 4-substituted piperidine derivatives” (priority 1999, dated 2004).
Structures can show the parent of a compound that is named as a salt.

Experiments:
acetylcholinesterase = biological target: T1, acetylcholinesterase (Rattus norvegicus, UniProt P37136); experiment: biochemical; conditions: rat brain homogenate as enzyme source; acetylthiocholine substrate, DTNB, absorbance at 412 nm; read-out: IC50 (50% inhibitory concentration on acetylcholinesterase)
T1 construct: Using a rat brain homogenate as a source of acetylcholinesterase; from tissue; host or cells: rat brain homogenate
T1 sequence (P37136 32-614): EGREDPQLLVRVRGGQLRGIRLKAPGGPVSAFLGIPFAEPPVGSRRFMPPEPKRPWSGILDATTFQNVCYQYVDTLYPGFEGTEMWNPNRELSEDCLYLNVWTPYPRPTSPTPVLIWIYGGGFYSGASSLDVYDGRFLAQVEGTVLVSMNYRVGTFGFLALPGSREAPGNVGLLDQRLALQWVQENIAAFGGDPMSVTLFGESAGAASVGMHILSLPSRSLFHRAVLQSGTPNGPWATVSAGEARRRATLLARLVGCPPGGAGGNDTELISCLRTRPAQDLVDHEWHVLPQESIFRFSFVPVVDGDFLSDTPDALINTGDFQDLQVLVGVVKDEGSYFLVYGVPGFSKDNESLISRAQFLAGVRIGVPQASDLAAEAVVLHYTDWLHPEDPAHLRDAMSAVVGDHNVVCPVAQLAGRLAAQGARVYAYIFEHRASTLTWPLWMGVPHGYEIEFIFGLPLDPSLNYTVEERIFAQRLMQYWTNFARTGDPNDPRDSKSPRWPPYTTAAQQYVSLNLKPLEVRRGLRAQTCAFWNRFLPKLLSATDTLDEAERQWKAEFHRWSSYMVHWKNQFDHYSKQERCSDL
Experimental: Inhibitory effect on acetylcholinesterase in vitro
Using a rat brain homogenate as a source of acetylcholinesterase, the esterase activity was determined in accordance with the method of Ellman et al^1). Acethylthiocholine (as a substrate), a test compound and DTNB (5,5′-dithiobis(2-nitrobenzoic acid)) were added to the […] brain homogenate, and then incubated. Then, the resulting yellow product produced by the reaction of the resulting thiocholine with DTNB was determined for the change in absorbanceat 412 nm, to determine the acethylcholinesterase activity.
^1); Ellman. G. L., Courtney, K. D., Andres, V. and Featherstone, R. M., (1961), Biochem. Pharmacol., 7, 88-95.
The inhibitory effect of each test compound on acethylcholinesterase was determined in terms of 50% inhibitory concentration (IC50).
Each of the compounds was dissolved in physiological saline for use as a test sample.

| Structure (SMILES) | melting point [°C] | IC50 (acetylcholinesterase) [nM] |
| --- | --- | --- |
| COc1cc2c(cc1OC)C(=O)C(F)(CC1CCN(Cc3ccccn3)CC1)C2 (stereo not drawn) (as salt: hydrochloride) | 177 to 180 | – |
| COc1cc2c(cc1OC)C(=O)C(F)(CC1CCN(CC3OCCO3)CC1)C2 (stereo not drawn) (as salt: hydrochloride) | 143 to 145 | – |
| COc1cc2c(cc1OC)C(=O)C(F)(CC1CCN(Cc3cccc(C#N)c3)CC1)C2 (stereo not drawn) (as salt: hydrochloride) | 139 to 141 | – |
| CCOc1cc2c(cc1OCC)C(=O)C(F)(CC1CCN(Cc3ccccc3)CC1)C2 (stereo not drawn) [Example 1, 1-Benezyl-4-[(5,6-diethoxy-2-flouro-1-indanon)-2-yl]methylpiperidine Hydrochloride] | – | 0.38 |
| COc1cc2c(cc1OC)C(=O)C(F)(CC1CCN(Cc3cccc(F)c3)CC1)C2 (stereo not drawn) [Example 4, 4-[(5,6-Dimethoxy-2-flouro-indanon)-2-yl]methyl-1-(3-flourobenzyl)piperidine Hydrochloride] | – | 0.47 |
| COc1cc2c(cc1OC)C(=O)C(F)(CC1CCN(Cc3cccc(C)c3)CC1)C2 (stereo not drawn) [Example 5, 4-[(5,6-Dimethoxy-2-flouro-1-indanon)-2-yl]methyl-1-(3-methylbenzyl)piperidine Hydrochoride] | – | 0.82 |
| COc1cc2c(cc1OC)C(=O)C(F)(CC1CCN(CC3CCCCC3)CC1)C2 (stereo not drawn) [Example 6, 1-(-Cyclohexylmethyl-4-[(5,6-dimethoxy-2-flouro-1-indanon)-2-yl]methylpiperidine Hydrochloride] | – | 1.7 |
| COc1cc2c(cc1OC)C(=O)C(F)(CC1CCN(Cc3cccc([N+](=O)[O-])c3)CC1)C2 (stereo not drawn) [Example 11, 4-[(5,6-Dimethoxy-2-flouro-1-indanon)-2-yl]methyl-1-(3-nitrobenzyl)piperidine Hydrochloride] | – | 0.7 |
| COc1ccc2c(c1)CC(F)(CC1CCN(Cc3ccccc3)CC1)C2=O (stereo not drawn) [Example 12, 1-Benzyl-4-[(5-methoxy-2-flouro-1-indanon)-2-yl]methylpiperidine Hydrochloride] | – | 1.2 |
| COc1cc2c(cc1OC)C(=O)C(F)(CCCC1CCN(Cc3ccccc3)CC1)C2 (stereo not drawn) [Example 14, 1-Benzyl-4-[3-[5,6-dimethoxy-2-flouro-1-indanon)-2-yl]propyl]piperidine Hydrochloride] | – | 1.4 |
| COc1cc2c(cc1OC)C(=O)C(F)(CC1CCN(Cc3ccc(O)cc3)CC1)C2 (stereo not drawn) [Example 15, 4-[(5,6-Dimethoxy-2-flouro-1-indanon)-2-yl]methyl-1-(4-hydroxybenzyl)piperidine Hydrochloride] | – | 0.32 |
| CCCOc1cc2c(cc1OCCC)C(=O)C(F)(CC1CCN(Cc3ccccc3)CC1)C2 (stereo not drawn) [Example 17, 1-Benzyl-4-[[[5,6-di-(1-propyloxy)]-2-flouro-1-indanon-2-yl]methylpiperidine Hydrochloride] | – | 0.89 |
